Counter-ions that a name gives are not always drawn. Like-named read-outs stand apart in the source and are kept apart here.
Assays:
Chk-1 kinase = Chk-1 kinase (Homo sapiens (Human), UniProt O14757); test: Chk-1 Kinase Inhibiting Activity (33P-ATP filter assay, CHKtide substrate); type: biochemical; conditions: against Chk-1 kinase; read-out: IC50
Method: Chk-1 Kinase Inhibiting Activity
The compounds of the invention were tested for activity against Chk-1 kinase using the materials and protocols set out below.
Base Reaction buffer: 20 mM Hepes (pH 7.5), 10 mM MgCl2, 1 mM EGTA, 0.02% Brij35, 0.02 mg/ml BSA, 0.1 mM Na3VO4, 2 mM DTT, 1% DMSO
*Required cofactors are added individually to each kinase reaction
(i) Prepare indicated substrate in freshly prepared Base Reaction Buffer
(ii) Deliver any required cofactors to the substrate solution above
(iii) Deliver indicated kinase into the substrate solution and gently mix
(iv) Deliver compounds in DMSO into the kinase reaction mixture
(v) Deliver ^33P-ATP (specific activity 0.01 μCi/μl final) into the reaction mixture to initiate the reaction.
(vi) Incubate kinase reaction for 120 minutes at room temperature
(vii) Reactions are spotted onto P81 ion exchange paper (Whatman #3698-915)
(viii) Wash filters extensively in 0.1% phosphoric acid.
(ix) Dry filters and measure counts in scintillation counter
Recombinant full length construct, N-terminal GST tagged, purified from insect cells.
No special measures were taken to activate this kinase.
Final concentration in assay=0.5 nM
Peptide sequence: [[…]]
Final concentration in assay=20 μM
No additional cofactors are added to the reaction mixture
From the results obtained by following the above protocol, the IC50 values against Chk-1 kinase of each of the compounds of Examples 1-153 were determined and these are shown in Table 3.

MIA PaCa-2 cells = test: Gemcitabine Combination Cell Assay (Cell Titer Glo); type: cell-based; conditions: for IC50: Homo sapiens; for 10xLS: approximate concentration of Chk1 inhibitor that results in a 10-fold reduction in the IC50 of gemcitabine alone; for 2xLS: approximate concentration of Chk1 inhibitor that results in a two-fold reduction in the IC50 of gemcitabine alone
Method: Gemcitabine Combination Cell Assay
Exponentially growing MIA PaCa-2 (ATCC CRL-1420) cells are treated with trypsin to remove cells from the plate surface. Approximately 10,000 cells/well are plated in 96 well plates in RPMI containing 10% fetal bovine serum, 1% sodium pyruvate and 1% L-GlutaMax. Cells are allowed to adhere to the plate surface overnight. Serial half-log dilutions of Chk1 inhibitor test compounds and gemcitabine are made with a final highest concentration of 3000 nM and 100 nM, respectively. Chk1 inhibitors and gemcitabine are combined so that each concentration of Chk1 inhibitor is added to each concentration of gemcitabine. Each drug is also tested as a single agent. Drugs are added to adherent cells (in duplicate) and incubated for 72 h. At 72 h the cells are treated with Promega Cell Titer Glo reagent for approximately 15 minutes. Luminescence (relative light units, RLU) is recorded using a BMG Polarstar Omega plate reader. The single agent concentration that results in a 50% reduction in total signal (IC50) is calculated using PRISM software and a four-parameter non-linear regression curve fit. For combination studies the RLUs are plotted using PRISM on an XY plot with the gemcitabine concentration on the X axis and RLU on the Y axis. The RLU for each concentration of Chk1 inhibitor is plotted as a function of gemcitabine concentration. The IC50 for gemcitabine alone and at each concentration of Chk1 is determined using a four-parameter non-linear regression curve fit. The approximate concentration of Chk1 inhibitor that results in a two and ten-fold reduction in the IC50 of gemcitabine alone is calculated as an indication of synergistic potency.
From the results obtained by following the above protocol, the IC50 values against MIAPaca-2 cells of the Chk1 inhibitor alone (Chk1 IC50), the approximate concentration of Chk1 inhibitor that results in a two-fold (2×LS) and a 10-fold (10×LS) reduction in the IC50 of gemcitabine alone of each of the compounds of Examples 1-154 are shown in Table 4.

[1] = Chk1 inhibitor alone, MIA PaCa-2 cells, 72 h, read-out: Chk1 IC50
[2] = MIA PaCa-2, 72 h, read-out: Chk1 IC50 (nM)

Chk-1 kinase, sequence (O14757 whole entry): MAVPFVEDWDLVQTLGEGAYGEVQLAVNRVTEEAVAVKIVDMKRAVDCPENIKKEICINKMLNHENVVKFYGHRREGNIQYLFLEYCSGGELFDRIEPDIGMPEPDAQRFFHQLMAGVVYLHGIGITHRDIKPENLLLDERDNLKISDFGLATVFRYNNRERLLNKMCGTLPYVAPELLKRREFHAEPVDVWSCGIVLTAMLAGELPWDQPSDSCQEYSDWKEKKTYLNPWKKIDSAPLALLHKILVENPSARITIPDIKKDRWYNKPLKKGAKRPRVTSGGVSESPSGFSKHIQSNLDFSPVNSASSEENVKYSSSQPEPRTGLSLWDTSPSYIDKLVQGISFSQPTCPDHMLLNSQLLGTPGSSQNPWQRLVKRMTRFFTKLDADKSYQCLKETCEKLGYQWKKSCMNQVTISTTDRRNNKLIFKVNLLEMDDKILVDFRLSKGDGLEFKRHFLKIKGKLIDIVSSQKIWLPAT

| IC50 (Chk-1 kinase) [nM] | IC50 (MIA PaCa-2 cells; [1]) [nM] | Structure (SMILES) | 10xLS (MIA PaCa-2 cells; MIA PaCa-2 cells, 72 h) [nM] | 2xLS (MIA PaCa-2 cells; MIA PaCa-2 cells, 72 h) [nM] | IC50 (MIA PaCa-2 cells; [2]) [nM] |
| --- | --- | --- | --- | --- | --- |
| 11 | > 3000 | COc1cc(CNCCN2CCOCC2)ccc1-c1cc(Nc2cnccn2)n[nH]1 [Example 10, (5-{2-methoxy-4-[(2-morpholin-4-yl-ethylamino)-methyl]-phenyl}-1H-pyrazol-3-yl)-pyrazin-2-yl-amine] | >3000 | 1000 | – |
| 0.3 | 2210 | COc1cc(CN(C)CCN2CCOCC2)ccc1-c1cc(Nc2cnc(C#N)cn2)n[nH]1 [Example 15, 5-[[5-[2-methoxy-4-[[methyl(2-morpholinoethyl)amino]methyl]phenyl]-1H-pyrazol-3-yl]amino]pyrazine-2-carbonitrile] | ~3000 | ~5 | – |
| 0.085 | 1800 | COc1cc(NCCN2CCOCC2)ccc1-c1cc(Nc2cnc(C#N)cn2)n[nH]1 [Example 16, 5-[[5-[2-methoxy-4-(2-morpholinoethylamino)phenyl]-1H-pyrazol-3-yl]amino]pyrazine-2-carbonitrile] | 100 | <3 | – |
| 0.17 | 1610 | COc1cc(CN[C@H](C)CN2CCOCC2)ccc1-c1cc(Nc2cnc(C#N)cn2)n[nH]1 [Example 18, 5-[[5-[2-methoxy-4-[[[(1R)-1-methyl-2-morpholino-ethyl]amino]methyl]phenyl]-1H-pyrazol-3-yl]amino]pyrazine-2-carbonitrile] | ~200 | ~5 | – |
| 0.29 | 1610 | COc1cc(CNC(C)(C)CN2CCOCC2)ccc1-c1cc(Nc2cnc(C#N)cn2)n[nH]1 [Example 19, 5-[[5-[4-[[(1,1-dimethyl-2-morpholino-ethyl)amino]methyl]-2-methoxy-phenyl]-1H-pyrazol-3-yl]amino]pyrazine-2-carbonitrile] | ~200 | 3 | – |

Continued, compound first:

| Structure (SMILES) | IC50 (Chk-1 kinase) [nM] | IC50 (MIA PaCa-2 cells; [1]) [nM] | 10xLS (MIA PaCa-2 cells; MIA PaCa-2 cells, 72 h) [nM] | 2xLS (MIA PaCa-2 cells; MIA PaCa-2 cells, 72 h) [nM] | IC50 (MIA PaCa-2 cells; [2]) [nM] |
| --- | --- | --- | --- | --- | --- |
| COc1cc(C2CCN(C)CC2)ccc1-c1cc(Nc2cnc(C#N)cn2)n[nH]1 [Example 11, 5-{5-[2-Methoxy-4-(1-methyl-piperidin-4-yl)-phenyl]-1H-pyrazol-3-ylamino}-pyrazine-2-carbonitrile hydrochloride] | 0.048 | – | <100 | 3 | 214 |
| COc1cc(CNCC2CCN(C(=O)C3CC3)CC2)ccc1-c1cc(Nc2cnc(C#N)cn2)n[nH]1 [Example 12, 5-[5-(4-{[(1-cyclopropane-carbonyl-piperidin-4-ylmethyl)-amino]-methyl}-2-methoxy-phenyl)-1 H-pyrazol-3-ylamino]-pyrazine-2-carbonitrile] | 0.034 | 264 | ~50 | <3 | – |
| COc1cc(CNC2CCOCC2)ccc1-c1cc(Nc2cnc(C#N)cn2)n[nH]1 [Example 14, 5-[[5-[2-Methoxy-4-[(tetrahydropyran-4-ylamino)methyl]phenyl]-1H-pyrazol-3-yl]amino]pyrazine-2-carbonitrile hydrochloride] | 0.026 | – | ~50 | <3 | 894 |
| COc1cc(C2CCN(C(=O)CN(C)C)CC2)ccc1-c1cc(Nc2cnc(C#N)cn2)n[nH]1 [Example 17, 5-[[5-[4-[1-[2-(Dimethylamino)acetyl]-4-piperidyl]-2-methoxy-phenyl]-1H-pyrazol-3-yl]amino]pyrazine-2-carbonitrile hydrochloride] | 0.29 | – | 300 | 10 | 1820 |
| COc1cc(C2CCNCC2)ccc1-c1cc(Nc2cnc(C#N)cn2)n[nH]1 [Example 20, 5-[[5-[2-methoxy-4-(4-piperidyl)phenyl]-1H-pyrazol-3-yl]amino]pyrazine-2-carbonitrile] | 0.29 | 1110 | 100 | ~5 | – |

Reference: patent US10010547B2 (CASCADIAN THERAPEUTICS, INC., priority 2014, dated 2018)
